These results are taken from ChEMBL document CHEMBL3046067, “Synthesis of some novel 3,5-disubstituted 1,3,4-oxadiazole derivatives and anticancer activity on EAC animal model” (2011).

Activity calls are given as the source filed them. The calls are words filed in the database; no cut-off is given here.

Assay [1] deals with Mus musculus. Nature of the assay: Antitumor activity against Mus musculus (mouse) EAC xenografted in Mus musculus Swiss albino (mouse) assessed as increase in average life span at 50 mg/kg, ip qd for 7 days relative to control. Format: functional. The note with it: 168 h, route intraperitoneal, read-out: Survival.
Assay [2] is described as follows: Antitumor activity against Mus musculus (mouse) EAC xenografted in Mus musculus Swiss albino (mouse) assessed as inhibition of tumor formation at 50 mg/kg, ip qd for 7 days relative to control. In kind it is functional. The note with it: Ehrlich, 168 h, route intraperitoneal.
In assay [3] the test system is Mus musculus. Nature of the assay: Antitumor activity against Mus musculus (mouse) EAC xenografted in Mus musculus Swiss albino (mouse) assessed as increase in median life span at 50 mg/kg, ip qd for 7 days relative to control. Format: functional. The note with it: 168 h, route intraperitoneal, read-out: Survival.
Assay [4] relates to Mus musculus. Nature of the assay: Antitumor activity against Mus musculus (mouse) EAC xenografted in Mus musculus Swiss albino (mouse) assessed as restoration of hemoglobin level at 50 mg/kg, ip qd for 7 days. Further details: dose 50 mg/kg. In kind it is functional, organism-based.
The nature of assay [5]: Antitumor activity against Mus musculus (mouse) EAC xenografted in Mus musculus Swiss albino (mouse) assessed as non-viable cells at 50 mg/kg, ip qd for 7 days relative to control. The settings on record: route intraperitoneal. In kind it is functional, Ehrlich.
Assay [6] deals with Mus musculus. Description: Antitumor activity against Mus musculus (mouse) EAC xenografted in Mus musculus Swiss albino (mouse) assessed as restoration of RBC count at 50 mg/kg, ip qd for 7 days. Format: functional, organism-based. Further details: dose 50 mg/kg.
Assay [7] concerns Mus musculus. Nature of the assay: Antitumor activity against Mus musculus (mouse) EAC xenografted in Mus musculus Swiss albino (mouse) assessed as restoration of WBC count at 50 mg/kg, ip qd for 7 days. Further details: dose 50 mg/kg. Format: functional, organism-based.
Assay [8] can be described thus: Antitumor activity against Mus musculus (mouse) EAC xenografted in Mus musculus Swiss albino (mouse) assessed as viable cells at 50 mg/kg, ip qd for 7 days relative to control. In kind it is functional, Ehrlich. The settings on record: route intraperitoneal.
In assay [9] the test system is Mus musculus. Description: Antitumor activity against Mus musculus (mouse) EAC xenografted in Mus musculus Swiss albino (mouse) assessed as increase in median life span at 20 mg/kg, ip qd for 7 days relative to control. In kind it is functional. The settings on record: 168 h, route intraperitoneal.
Assay [10] deals with Mus musculus. Description: Antitumor activity against Mus musculus (mouse) EAC xenografted in Mus musculus Swiss albino (mouse) assessed as increase in average life span at 20 mg/kg, ip qd for 7 days relative to control. Format: functional. The settings on record: 168 h, route intraperitoneal.
Assay [11] in a line: Antitumor activity against Mus musculus (mouse) EAC xenografted in Mus musculus Swiss albino (mouse) assessed as viable cells at 20 mg/kg, ip qd for 7 days relative to control. In kind it is functional, Ehrlich. The note with it: route intraperitoneal.
A short description of assay [12]: Antitumor activity against Mus musculus (mouse) EAC xenografted in Mus musculus Swiss albino (mouse) assessed as non-viable cells at 20 mg/kg, ip qd for 7 days relative to control. In kind it is functional, Ehrlich. The note with it: route intraperitoneal.

Consider `O=[N+]([O-])c1ccc(-c2nn(CNc3ccccn3)c(=S)o2)cc1`, for which, in assay [1], the percent increase in average life span at 50 mg/kg was found to be 38.5%. For the same molecule, the inhibition in vivo at 50 mg/kg in assay [2] stood at 60.8%. Also, in assay [3], the Increase in median life span at 50 mg/kg worked out at 36.9%. Further, the outcome in [4], in assay [6] and in assay [7] was Active. The Activity in [5] is given as 63.17%; in assay [8], 36.83%.
As for `S=c1oc(-c2ccc(Cl)cc2Cl)nn1CNc1ccccn1`, the percent increase in average life span at 50 mg/kg in [1] came to 53.6%. In assay [2], the inhibition in vivo at 50 mg/kg came to 52.2%. In assay [3], the Increase in median life span at 50 mg/kg is 47.7%. For the same molecule, the outcome in [4], in assay [6] and in assay [7] was Active. Also, the Activity in assay [5] came to 72.67%; in assay [8], 27.33%.
Consider `O=c1[nH]cc(F)c(=O)[nH]1` [FLUOROURACIL], for which the survival at 20 mg/kg is 90.8% in assay [9] and 92.7% in assay [10]. The Activity was 14.83% in [11] and 85.17% in assay [12].
On to `Oc1ccc(-c2nn(CNc3ccccn3)c(=S)o2)cc1`, for which, in assay [1], the percent increase in average life span at 50 mg/kg worked out at 80.7%. For the same molecule, the inhibition in vivo at 50 mg/kg in [2] amounted to 73.9%. In assay [3], the Increase in median life span at 50 mg/kg was found to be 76.9%. The result in assay [4], in [6] and in [7] was Active. Further, the values for the Activity in assay [5] and in assay [8] were 77.5% and 22.5%, respectively.
On to `Cc1ccc(-c2nn(CNc3ccccn3)c(=S)o2)cc1`, for which the percent increase in average life span at 50 mg/kg in [1] turned out to be 74%. Besides, the inhibition in vivo at 50 mg/kg in [2] stood at 56.5%. The Increase in median life span at 50 mg/kg in assay [3] was determined as 73.8%. Also, the result in [4], in assay [6] and in assay [7] was Active. For the same molecule, the Activity in assay [5] came out at 75.17%; in [8], 24.83%.
On to `O=[N+]([O-])c1ccc(-c2nn(CNc3ccccc3)c(=S)o2)cc1`, for which the percent increase in average life span at 50 mg/kg in [1] is 46.4%. For the same molecule, in assay [2], the inhibition in vivo at 50 mg/kg turned out to be 56.5%. Further, in assay [3], the Increase in median life span at 50 mg/kg was 44.6%. For the same molecule, the outcome in assay [4], in assay [6] and in assay [7] was Active. The Activity in [5] is 66.5%; in assay [8] it was 33.5%.
